Results reported in patent publication US4292317A, “1,4-Dihydro-quinoline-3-carboxylic acid derivatives, process for their preparation and compositions containing them” (Laboratorie Roger Bellon, priority 1977, dated 1981).
Converted amounts (≈) assume the structure as drawn.

Tests used:
Type in all cases: cell-based
[1] = tested on: Ps. aeruginosa A.22; assay: M.I.C. in vitro, nutrient agar dilution; conditions: Pseudomonas aeruginosa, 18 h; Table 2; Ps. aeruginosa A.22 (Gram negative); read-out: M.I.C.
Experimental: (§1) After sterilisation at 120° C., the pH was 6.8.
(§2) The minimum inhibitory concentrations (M.I.C.) were determined by dilution of the test compounds in this mixture, the concentration ranging from 0.05 to 100 μg/cm^3 in a geometric progression with a factor of 2.
(§3) The inoculation of the dishes was carried out by means of a multiple inoculator with 10^-3 dilutions of 18 hour old broth cultures.
(§4) The dishes were placed in an oven at 37° C. and the readings were taken afer an incubation time of 18 hours. The M.I.C. was taken as the lowest concentration which inhibited a culture.

[2] = tested on: Esch. coli 54.127 O.M.S.; assay: M.I.C. in vitro, nutrient agar dilution; conditions: Escherichia coli, 18 h; Table 2; Esch. coli 54.127 O.M.S. (Gram negative); read-out: M.I.C.
Experimental: as §1, §2, §3, §4

[3] = tested on: B. subtilis; assay: M.I.C. in vitro, nutrient agar dilution; conditions: Bacillus subtilis, 18 h; Table 2; B. subtilis (Gram positive); read-out: M.I.C.
Experimental: as §1, §2, §3, §4

[4] = tested on: Pr. morganii A.236; assay: M.I.C. in vitro, nutrient agar dilution; conditions: Morganella morganii, 18 h; Table 2; Pr. morganii A.236 (Gram negative); read-out: M.I.C.
Experimental: as §1, §2, §3, §4

[5] = tested on: Strepto D.M. 19; assay: M.I.C. in vitro, nutrient agar dilution; conditions: 18 h; Table 2; Strepto D.M. 19 (Gram positive); read-out: M.I.C.
Experimental: as §1, §2, §3, §4

[6] = tested on: Arizona 6.211; assay: M.I.C. in vitro, nutrient agar dilution; conditions: 18 h; Table 2; Arizona 6.211 (Gram negative); read-out: M.I.C.
Experimental: as §1, §2, §3, §4

[7] = tested on: Klebs. pneum. 10.031; assay: M.I.C. in vitro, nutrient agar dilution; conditions: 18 h; Table 2; Klebs. pneum. 10.031 (Gram negative); read-out: M.I.C.
Experimental: as §1, §2, §3, §4

[8] = tested on: Pr. mirabilis Nig; assay: M.I.C. in vitro, nutrient agar dilution; conditions: Proteus mirabilis, 18 h; Table 2; Pr. mirabilis Nig (Gram negative); read-out: M.I.C.
Experimental: as §1, §2, §3, §4

[9] = tested on: S. enteritidis Danysz; assay: M.I.C. in vitro, nutrient agar dilution; conditions: Salmonella enterica, 18 h; Table 2; S. enteritidis Danysz (Gram negative); read-out: M.I.C.
Experimental: as §1, §2, §3, §4

[10] = tested on: S. oranienburg 1066; assay: M.I.C. in vitro, nutrient agar dilution; conditions: Salmonella enterica, 18 h; Table 2; S. oranienburg 1066 (Gram negative); read-out: M.I.C.
Experimental: as §1, §2, §3, §4

[11] = tested on: Sh. sonnei I.P.S.; assay: M.I.C. in vitro, nutrient agar dilution; conditions: Shigella sonnei, 18 h; Table 2; Sh. sonnei I.P.S. (Gram negative); read-out: M.I.C.
Experimental: as §1, §2, §3, §4

[12] = tested on: Serratia; assay: M.I.C. in vitro, nutrient agar dilution; conditions: 18 h, Table 2, Berratia (Gram negative), read-out: M.I.C.
Experimental: as §1, §2, §3, §4

[13] = tested on: Esch. coli 95 I.S.M.; assay: M.I.C. in vitro, nutrient agar dilution; conditions: Escherichia coli, 18 h; Table 2; Esch. coli 95 I.S.M. (Gram negative); read-out: M.I.C.
Experimental: as §1, §2, §3, §4

[14] = tested on: Esch. coli 111 B4; assay: M.I.C. in vitro, nutrient agar dilution; conditions: Escherichia coli, 18 h; Table 2; Esch. coli 111 B4 (Gram negative)
Experimental: as §1, §2, §3, §4

[15] = tested on: Ps. aeruginosa 72.345; assay: M.I.C. in vitro, nutrient agar dilution; conditions: Pseudomonas aeruginosa, 18 h; Table 2; Ps. aeruginosa 72.345 (Gram negative); read-out: M.I.C.
Experimental: as §1, §2, §3, §4

[16] = tested on: Pr. vulgaris 12-53; assay: M.I.C. in vitro, nutrient agar dilution; conditions: Proteus vulgaris, 1253, 18 h; Table 2; Pr. vulgaris 12-53 (Gram negative); read-out: M.I.C.
Experimental: as §1, §2, §3, §4

[17] = tested on: Staph. 9.144; assay: M.I.C. in vitro, nutrient agar dilution; conditions: 18 h; Table 2; Staph. 9.144 (Gram positive); read-out: M.I.C.
Experimental: as §1, §2, §3, §4

[18] = tested on: Staph. 209 P; assay: M.I.C. in vitro, nutrient agar dilution; conditions: 18 h; Table 2; Staph. 209 P (Gram positive); read-out: M.I.C.
Experimental: as §1, §2, §3, §4

[19] = tested on: Providentia 0223; assay: M.I.C. in vitro, nutrient agar dilution; conditions: 18 h; Table 2; Providentia 0223 (Gram negative); read-out: M.I.C.
Experimental: as §1, §2, §3, §4

[20] = tested on: Bord. bronchis. 4.617; assay: M.I.C. in vitro, nutrient agar dilution; conditions: 18 h; Table 2; Bord. bronchis. 4.617 (Gram negative); read-out: M.I.C.
Experimental: as §1, §2, §3, §4

[21] = tested on: Strepto A 561; assay: M.I.C. in vitro, nutrient agar dilution; conditions: 18 h; Table 2; Strepto A 561 (Gram positive)
Experimental: as §1, §2, §3, §4

[22] = tested on: Salm. typhi 0901; assay: microbe, parasite or virus in culture; conditions: Salmonella enterica, 18 h; Table 2; Salm. typhi 0901 (Gram negative)
Experimental: as §1, §2, §3, §4

Compound | MIC [1] [µg/mL] | MIC [2] [µg/mL] | MIC [3] [µg/mL] | MIC [4] [µg/mL] | MIC [5] [µg/mL] | MIC [6] [µg/mL] | MIC [7] [µg/mL] | MIC [8] [µg/mL] | MIC [9] [µg/mL] | MIC [10] [µg/mL] | MIC [11] [µg/mL] | MIC [12] [µg/mL] | MIC [13] [µg/mL] | MIC [14] [µg/mL] | MIC [15] [µg/mL] | MIC [16] [µg/mL] | MIC [17] [µg/mL] | MIC [18] [µg/mL] | MIC [19] [µg/mL] | MIC [20] [µg/mL] | further results
CCn1cc(C(=O)O)c(=O)c2cc(Cl)c(N3CCN(Cc4ccccc4)CC3)cc21 [Example 5, 7-(4-Benzylpiperazinyl)-6-chloro-1-ethyl-4-oxo-1,4-dihydro-quinoline-3-carboxylic acid] | 25 (≈ 58.7 µM) | 6.2 (≈ 14.6 µM) | 0.4 (≈ 0.939 µM) | 3.1 (≈ 7.28 µM) | 6.2 (≈ 14.6 µM) | 3.1 (≈ 7.28 µM) | 0.4 (≈ 0.939 µM) | 6.2 (≈ 14.6 µM) | 6.2 (≈ 14.6 µM) | 100 (≈ 235 µM) | 1.6 (≈ 3.76 µM) | 3.1 (≈ 7.28 µM) | 3.1 (≈ 7.28 µM) | 3.1 (≈ 7.28 µM) | 25 (≈ 58.7 µM) | 6.2 (≈ 14.6 µM) | 0.8 (≈ 1.88 µM) | 0.2 (≈ 0.47 µM) | 50 (≈ 117 µM) | 12.5 (≈ 29.3 µM) | MIC [21]: 6.2 µg/mL (≈ 14.6 µM); MIC [22]: 6.2 µg/mL (≈ 14.6 µM)
CCn1cc(C(=O)O)c(=O)c2cc(Cl)c(N3CCOCC3)cc21 [Example 7, 6-Chloro-1-ethyl-7-morpholino-4-oxo-1,4-dihydro-quinoline-3-carboxylic acid] | 12.5 (≈ 37.1 µM) | 3.1 (≈ 9.2 µM) | 0.2 (≈ 0.594 µM) | 0.8 (≈ 2.38 µM) | 50 (≈ 148 µM) | 1.6 (≈ 4.75 µM) | 0.2 (≈ 0.594 µM) | 1.6 (≈ 4.75 µM) | 3.1 (≈ 9.2 µM) | > 100 | 0.8 (≈ 2.38 µM) | 0.8 (≈ 2.38 µM) | 1.6 (≈ 4.75 µM) | 3.1 (≈ 9.2 µM) | 6.2 (≈ 18.4 µM) | 0.8 (≈ 2.38 µM) | 0.4 (≈ 1.19 µM) | 0.2 (≈ 0.594 µM) | > 100 | 12.5 (≈ 37.1 µM) | MIC [21]: 100 µg/mL (≈ 297 µM); MIC [22]: 3.1 µg/mL (≈ 9.2 µM)
